In patent US20030003114A1, “Enzyme-based anti-cancer compositions and methods” (priority 2001, published 2003):

Columns and labels:
[1] = system: 24 JK murine sarcoma cells; test: Syngeneic tumor model, 24 JK murine sarcoma in C57BL/6 mice; parameters: anti-tumor effectiveness: dose or concentration left out as unconfirmed
Experimental: In the case where a hexosaminidase is tested for anti-tumor activity on murine tumor cells or tissues, a syngeneic tumor model is used. In this model, tumor cells or tissues are implanted in C57BL/6 mice. As in the SCID mouse model described above, the implanted tumors are allowed to grow to a size of approximately 50 to 100 mm^3 before various amounts of the hexosaminidase are administered to the animal, by any of the means described above. The decrease in tumor size or, preferably, elimination of the tumor from the mouse, is subsequently observed.
In both the SCID and C57BL/6 models described above, the anti-tumor activity of a hexosaminidase is compared to the anti-tumor activity of a known anti-tumor agent. For example, mice containing tumors are treated with doxorubicin. A suitable dose of doxorubicin is 5 mg per kg of body weight of the mice.
A syngeneic tumor model, C57BL/6 mice carrying implanted 24 JK murine sarcoma cells, was used in these studies. The cells were injected subcutaneously into the mouse flank. Five days later, 5 units of chitinase was injected intraperitoneally (IP) into the mouse. Into another mouse was injected 5 mg doxorubicin per kilogram of mouse weight IP on days 5, 7 and 9. Into a third mouse was injected saline on day 5 (i.e., negative control).

Malignant melanoma = test: Human malignant melanoma xenograft in SCID mice, tumor size; format: in vivo; conditions: 5 units injected into the tumor (day 1)
Experimental: (§1) The effect of hexosaminidases on survival of tumor cells is also tested by administering hexosaminidases to experimental animals that have various tumors. Preferably, the tumors are human tumors or cancer xenograft tissues and the experimental animal is a SCID mouse. Good results have been obtained by transplanting tumor cells or tissues subcutaneously in the animal or behind the fat pad of the mouse. After the tumor cells or tissues are transplanted into the animal, the tumors cells grow and divide. When the tumors reach a visible size (e.g., 0.5-0.8 cm^3) in the SCID mice, a hexosaminidase is dissolved in PBS and various amounts of the hexosaminidase are injected into the tumor (i.e., intratumor injection), injected intraperitoneally (IP) into the animal, or intravenously (IV) into the animal. Single or multiple injections are used. The size of the tumor is subsequently measured to determine the effect of the enzyme on tumor growth and survival. A decrease in size of the tumors is indicative of anti-tumor activity of the hexosaminidase. Preferably, administration of the hexosaminidase results in a significant size reduction of the tumor. […]
Malignant melanoma was obtained from patients as a biopsy sample and a 0.1 cm^3 piece of the biopsy was implanted into SCID mice. […] Subsequently, the size of the tumors was measured daily.

[2] = system: Moderately differentiated adenocarcinoma from prostate; test: Human prostate cancer xenograft in SCID mice, tumor size; format: in vivo; conditions: 5 units injected into the tumor (day 1), FIG. 2
Experimental: as §1
Moderately differentiated adenocarcinoma from prostate was obtained from patients as a biopsy sample and a 0.1 cm^3 piece of the biopsy was implanted into SCID mice. […] Subsequently, the size of the tumors was measured daily.

[3] = system: Ductal carcinoma from breast; test: Human breast cancer xenograft in SCID mice, tumor size; format: in vivo; conditions: 5 units injected into the tumor (day 1)
Experimental: as §1
Ductal carcinoma from breast was obtained from patients as a biopsy sample and a 0.1 cm^3 piece of the biopsy was implanted into SCID mice. […] Subsequently, the size of the tumors was measured daily.

melanoma cells = test: Cultured tumor cells treated with chitinase, cellular damage (electron micrographs); format: cell-based, human; conditions: within hours of treatment, ultimately leading to cell death
[4] = system: Adenocarcinoma from ovaries; test: Human ovarian cancer xenograft in SCID mice, tumor size; format: in vivo; conditions: 5 units injected into the tumor (day 1)
Experimental: as §1
Adenocarcinoma from ovaries was obtained from patients as a biopsy sample and a 0.1 cm^3 piece of the biopsy was implanted into SCID mice. […] Subsequently, the size of the tumors was measured daily.

[5] = Chitinase levels in blood of mice after different routes of administration (4-mu-chitotrioside assay of plasma); format: in vivo; conditions: mouse
Experimental: Thirty-five mg of chitinase (Sigma C-6139) was dissolved in 1.5 ml of PBS. One-half ml of the chitinase solution was injected into each of 3 mice. One mouse was injected intraperitoneally (IP), one was injected intravenously (IV), and one mouse was injected subcutaneously (SC). A fourth mouse was injected with saline as a control. At various times after injection, 15-20 μl of blood was taken from the tail vein of each mouse and immediately mixed with a sodium-EDTA solution (pH 7.4). The cells were centrifuged from the blood and 5 μl of plasma was used in a chitinase assay. In the chitinase assay, 4-methylumbelliferyl-β-D-N, N′, N″-triacetyl-chitotriose (4-mu-chitotrioside) was used as the substrate for chitinase. The plasma sample, in 100 μl of saline, was mixed with 100 μl of 22 μM 4-mu-chitotrioside solution in 0.2 M citric acid buffer (pH 5.2) and incubated in a 37° C. water bath for 15 min. At the end of the incubation, 3.0 ml of 0.3 M glycine buffer (pH 10.6) was added to the mixture to stop the reaction. The fluorescence of the solution at 460 nm was then measured after excitation at 355 nm.

lung cancer cells = test: Cultured tumor cells treated with chitinase, cellular damage (electron micrographs); format: cell-based, human; conditions: within hours of treatment, ultimately leading to cell death
[6] = system: Moderately differentiated adenocarcinoma from human colon; test: Human colon cancer xenograft in SCID mice, tumor size; format: in vivo; conditions: 5 units injected into the tumor (day 1), FIG. 2
Experimental: as §1
Moderately differentiated adenocarcinoma from human colon was obtained from patients as a biopsy sample and a 0.1 cm^3 piece of the biopsy was implanted into SCID mice. […] Subsequently, the size of the tumors was measured daily.

[7] = Observation of treated mice for visible signs of systemic toxicity; format: in vivo; conditions: general statement; high chitinase levels do not appear to cause toxicity in normal tissues
Text: Such toxicity is compared with toxicity that is present in control animals, animals administered doxorubicin for example.

[8] = system: Merkel cell cancer (neuroendocrine skin cancer); test: Merkel cell cancer xenograft in SCID mice, tumor size; format: in vivo, human; conditions: 5 units injected into the tumor (day 1)
Experimental: as §1
Merkel cell cancer (neuroendocrine skin cancer) was obtained from patients as a biopsy sample and a 0.1 cm^3 piece of the biopsy was implanted into SCID mice. […] Subsequently, the size of the tumors was measured daily.

[9] = system: Moderately differentiated squamous cell carcinoma from human lung; test: Human lung cancer xenograft in SCID mice, tumor size; format: in vivo
Experimental: as §1
Moderately differentiated squamous cell carcinoma from human lung was obtained from patients as a biopsy sample and a 0.1 cm^3 piece of the biopsy was implanted into SCID mice. […] Subsequently, the size of the tumors was measured daily. […]

[10] = system: LNCaP prostate cancer cells; test: LNCaP prostate cancer cell tumors in SCID mice; format: in vivo, human
Experimental: The effect of hexosaminidases on survival of tumor cells is also tested by administering hexosaminidases to experimental animals that have various tumors. Preferably, the tumors are human tumors or cancer xenograft tissues and the experimental animal is a SCID mouse. Good results have been obtained by transplanting tumor cells or tissues subcutaneously in the animal or behind the fat pad of the mouse. After the tumor cells or tissues are transplanted into the animal, the tumors cells grow and divide. When the tumors reach a visible size (e.g., 0.5-0.8 cm^3) in the SCID mice, a hexosaminidase is dissolved in PBS and various amounts of the hexosaminidase are injected into the tumor (i.e., intratumor injection), injected intraperitoneally (IP) into the animal, or intravenously (IV) into the animal. Single or multiple injections are used. The size of the tumor is subsequently measured to determine the effect of the enzyme on tumor growth and survival. A decrease in size of the tumors is indicative of anti-tumor activity of the hexosaminidase. Preferably, administration of the hexosaminidase results in a significant size reduction of the tumor. More preferably, the hexosaminidase eliminates the tumor from the SCID mouse. Preferably, such animals will remain free from tumors in the future.
One million LNCaP prostate cancer cells were injected into SCID mice. After the tumors grew to a size of between 0.3-0.6 cm^3, 5 units of Streptomyces chitinase was injected intratumorally, intraperitoneally and intravenously, in separate mice. […] All untreated animals died within 3 months.

[11] = system: Poorly differentiated carcinoma from human bladder; test: Human bladder cancer xenograft in SCID mice, tumor size; format: in vivo; conditions: 5 units injected into the tumor (day 1)
Experimental: as §1
Poorly differentiated carcinoma from human bladder was obtained from patients as a biopsy sample and a 0.1 cm^3 piece of the biopsy was implanted into SCID mice. […] Subsequently, the size of the tumors was measured daily.

Large cell lymphoma = test: Human lymphoma xenograft in SCID mice, tumor size; format: in vivo; conditions: 5 units injected into the tumor (day 1), over a period of 7 days, FIG. 2
Experimental: as §1
Large cell lymphoma was obtained from patients as a biopsy sample and a 0.1 cm^3 piece of the biopsy was implanted into SCID mice. […] Subsequently, the size of the tumors was measured daily.

[12] = system: spleen cells from a normal mouse; test: MTT dye reduction viability assay, normal cells; format: cell-based; conditions: concentrations up to 1.0 units per ml of culture medium, 3 days, FIG. 1
Text: Different concentrations of the hexosaminidases are used. […] One method is the MTT assay.

[13] = system: human oral carcinoma KB cells; conditions: 3 days culture at 37° C., MTT, FIG. 1
Experimental: Good results have been obtained by testing the effect of hexosaminidases on the viability of cultured normal and tumor cells is tested by culturing normal cells (e.g., spleen cells from a mouse) and tumor cells (e.g., human oral carcinoma KB cells) in vitro and then adding various concentrations of the hexosaminidase to the cells. Different concentrations of the hexosaminidases are used. At various times after addition of the hexosaminidase, the viability of the cells is determined using one of a variety of methods. One method is the MTT assay. In this assay, cells are exposed to MTT, 3-(4,5-dimethylthiazol-2-yl)2,5-diphenyltetrazolium bromide, which is taken into the cells and reduced by mitochondrial dehydrogenase to a purple formazan, a large molecule which is unable to pass through intact cell membranes, and therefore accumulates in healthy cells. The ability of cells to reduce MTT is an indication of mitochondrial integrity and activity, which is interpreted as a measure of viability.
Fifty thousand spleen cells from a normal mouse, or human oral carcinoma KB cells were cultured. […] This product was dissolved in a solvent (95% ethanol:DMSO; 1:1), added to the cells and the absorbance (540 nm) was determined. The absorbance of the formazan is linearly proportional to the number of viable cells in the culture.

[14] = system: prostate cancer LNCaP cells; test: Cultured tumor cells treated with chitinase, cellular damage; format: cell-based, human; conditions: within hours of treatment, ultimately leading to cell death
fibrosarcoma = test: Human fibrosarcoma xenograft in SCID mice, tumor size; format: in vivo; conditions: 5 units injected into the tumor (day 1)
Experimental: as §1
A fibrosarcoma was obtained from patients as a biopsy sample and a 0.1 cm^3 piece of the biopsy was implanted into SCID mice. […] Subsequently, the size of the tumors was measured daily.

[15] = system: breast cancer MCF-7 cells; test: Cultured tumor cells treated with chitinase, cellular damage (electron micrographs); format: cell-based, human; conditions: within hours of treatment, ultimately leading to cell death
[16] = 5 units intratumorally, intraperitoneally and intravenously, in separate mice

COc1cccc2c1C(=O)c1c(O)c3c(c(O)c1C2=O)C[C@@](O)(C(=O)CO)C[C@@H]3O[C@H]1C[C@H](N)[C@H](O)[C@H](C)O1 [doxorubicin, reference compound]
anti-tumor effectiveness [1]: generally ineffective | outcome of mice evaluated ([1]; 5 mg per kilogram IP on days 5, 7 and 9): eventually died from drug toxicity or progressive tumor growth | course of tumor growth ([1]; 3 intraperitoneal injections of 5 mg/kg (maximum tolerated dose)): growth attenuation followed by a resumption of progressive growth

chitinase
elimination of melanomas compared with human colon cancer of Example 2 (Malignant melanoma): as effectively eliminated | period over which prostate tumors were eliminated from the mouse [2]: 7 days | elimination of breast tumors compared with human colon cancer of Example 2 [3]: as effectively eliminated | cellular damage after chitinase treatment (melanoma cells): significant cellular damage | elimination of ovarian tumors compared with human colon cancer of Example 2 [4]: as effectively eliminated | maximum blood levels relative to those found in IV injection ([5]; IP injection): less than half | time at which maximum blood levels were reached ([5]; IP injection): 2 to 3 min | time until which blood levels tapered off ([5]; IP injection): 40 min | time until which maximum levels remained ([5]; IP injection): 7 to 8 min | time at which little chitinase was left in the blood ([5]; IV injection): 20 min | levels of chitinase in the blood immediately after injection ([5]; IV injection, within 1 min.): very high levels | maximum blood levels relative to blood levels found after IP injection ([5]; SC injection): a third | time at which maximum blood levels were reached ([5]; SC injection): 2 to 3 min | time until which blood levels tapered off ([5]; SC injection): 40 min | cellular damage after chitinase treatment (lung cancer cells): significant cellular damage | period over which human colon cancer was effectively eliminated from the animals [6]: 2 days | systemic toxicity [7]: without significant systemic toxicity | elimination of Merkel cell tumors [8]: eliminated | elimination of lung tumors compared with human colon cancer of Example 2 ([9]; 5 units injected into the tumor (day 1), SCID mice): as effectively eliminated | tumor size after chitinase treatment ([9]; 10 days after a single injection of 5 units, FIG. 3b): substantially reduced in size | histological staining of tumors compared to saline control tumors [10, 16]: extensive cellular damage and morphological changes | time after injection at which tumor necrosis was visible [10, 16]: within hours | tumor regression [10, 16]: complete tumor regression | survival of treated animals without tumor recurrence ([10]; 5 units, all untreated animals died within 3 months): more than one year | development of resistance of the tumors to the enzyme ([10]; additional studies): no indication of development of resistance | tumor elimination with an additional administration of chitinase after the first ([10]; additional studies): more rapidly eliminated | elimination of bladder tumors compared with human colon cancer of Example 2 [11]: as effectively eliminated | change of lymphoma size (Large cell lymphoma): reduced in size | effect on the viability of the normal mouse spleen cells [12]: little effect | concentrations at which chitinase efficiently kills the tumor cells [13]: 0.025 to 0.05 units of chitinase per ml of culture medium | dose dependence of anti-tumor activity ([1]; additional studies, increased with increasing dosages): dose dependent | regression of established tumors ([1]; intraperitoneal injection of 5 Units on day 5 and day 6): complete tumor regression | day until after which detectable growth of 24 JK sarcoma tumor cells was inhibited ([1]; single IP injection of 5 units five days after cell injection, FIG. 5): > 12 days | regression of established tumors ([1]; single intraperitoneal injection of 10 Units on day 5): complete tumor regression | cellular damage after chitinase treatment [14]: significant cellular damage | elimination of fibrosarcomas compared with human colon cancer of Example 2 (fibrosarcoma): as effectively eliminated | cellular damage after chitinase treatment [15]: significant cellular damage
